The source of these data is patent publication US9662310B2, “Cyclopropanecarboxylic acid derivative” (DAIICHI SANKYO COMPANY, LIMITED, priority 2010, dated 2017).

Where a name gives a salt, the structure may show the parent alone.

Chain of TAFIa (Q96IY4 115-423): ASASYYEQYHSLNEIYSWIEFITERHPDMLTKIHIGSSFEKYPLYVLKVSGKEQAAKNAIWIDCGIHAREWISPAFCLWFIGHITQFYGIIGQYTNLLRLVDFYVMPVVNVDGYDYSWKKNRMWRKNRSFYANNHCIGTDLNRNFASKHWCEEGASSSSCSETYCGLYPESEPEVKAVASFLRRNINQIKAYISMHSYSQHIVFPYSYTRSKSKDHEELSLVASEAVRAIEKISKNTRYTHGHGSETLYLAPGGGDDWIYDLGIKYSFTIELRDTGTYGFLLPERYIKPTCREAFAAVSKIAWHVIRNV

The target of the first assay is TAFIa (Homo sapiens (Human), UniProt Q96IY4). Nature of the assay: Determination of TAFIa enzyme inhibitory activity (FAAK substrate degradation). Type of assay: biochemical. Conditions: TAFI activated with human thrombin / rabbit lung thrombomodulin; substrate FAAK, absorbance at 330 nm; read-out: TAFIa IC50. On the procedure:
Determination of TAFIa Enzyme Inhibitory Activity
HEPES buffered saline (20 mM HEPES, 150 mM NaCl, pH 7.4; hereinafter, referred to as HBS) was used in the preparation of a reaction solution. To 12 μL of a 250 μg/mL TAFI solution, 30 μL of an HBS solution containing 4 U/mL human thrombin, 12 U/mL rabbit lung thrombomodulin, and 12 mM CaCl2 was added, and the mixture was gently stirred. Then, TAFI was activated at room temperature. Ten minutes later, thrombin was neutralized by the addition of 10 μL of 100 μM PPACK (thrombin inhibitor) to terminate the activation of TAFI. The formed TAFIa was stored in ice and diluted immediately before use in determination with 2050 μL of an HBS solution containing BSA (bovine serum albumin) adjusted to 0.1% in terms of the final concentration.
(2) Determination of TAFIa Inhibitory Activity
A test substance was dissolved in HBS to prepare a 10-fold dilution series of evaluation concentrations. 80 μL of the TAFIa solution and 10 μL of the test substance were added to each well of a 96-well plate and mixed by shaking for 10 minutes. 10 μL of furylacryloyl-alanyl-lysine (FAAK) adjusted to 5 mg/mL was added to each well, and the change in the absorbance of this mixed solution at 330 nm was read for 30 minutes to determine the degradation rate of the substrate.
(3) Calculation of Inhibitory Activity IC50
The degradation rate of the substrate in each well was applied to a standard curve prepared using the dilution series of the TAFIa solution to calculate TAFIa activity.
One may read the IC50 as the concentration that gives 50% inhibition. In the case of `CC(CN)C[C@H]1C[C@]1(C(=O)O)c1cn(-c2ccc(S(C)(=O)=O)cc2)cn1` (relative stereo) [Example 34, (1R*,2S*)-2-(3-Amino-2-methylpropyl)-1-{1-[4-(methylsulfonyl)phenyl]-1H-imidazol-4-yl}cyclopropanecarboxylic acid], the IC50 was 930 nM.

In the case of `NCCC[C@H]1C[C@]1(C(=O)O)c1cn(-c2nccs2)cn1` (relative stereo) [Example 38, (1R*,2S*)-2-(3-Aminopropyl)-1-[1-(1,3-thiazol-2-yl)-1H-imidazol-4-yl]cyclopropanecarboxylic acid], the IC50 stood at 58 nM.

Consider `C[C@@H](CN)C[C@H]1C[C@]1(C(=O)O)c1cn(-c2ccccc2)cn1` [Example 50, (1R,2S)-2-[(2R)-3-Amino-2-methylpropyl]-1-(1-phenyl-1H-imidazol-4-yl)cyclopropanecarboxylic acid], for which the IC50 is 14 nM.

`CCc1ccc(-n2cnc([C@@]3(C(=O)O)C[C@@H]3CCCN)c2)cc1` (relative stereo) [Example 11, (1R*,2S*)-2-(3-Aminopropyl)-1-[1-(4-ethylphenyl)-1H-imidazol-4-yl]cyclopropanecarboxylic acid]: the IC50 came out at 31 nM.

Consider `CC(CN)C[C@H]1C[C@]1(C(=O)O)c1cn(-c2ccccc2)cn1` (relative stereo) [Example 32, (1R*,2S*)-2-(3-Amino-2-methylpropyl)-1-(1-phenyl-1H-imidazol-4-yl)cyclopropanecarboxylic acid], for which the IC50 was 35 nM.

As to `NCCC[C@H]1C[C@]1(C(=O)O)c1cn(-c2ccc(Cl)cn2)cn1` (relative stereo) [Example 45, (1R*,2S*)-2-(3-Aminopropyl)-1-[1-(5-chloropyridin-2-yl)-1H-imidazol-4-yl]cyclopropanecarboxylic acid], the IC50 was 63 nM.

As to `C[C@H](CN)C[C@H]1C[C@]1(C(=O)O)c1cn(-c2ccccn2)cn1` [Example 56, (1R,2S)-2-[(2S)-3-Amino-2-methylpropyl]-1-(1-pyridin-2-yl-1H-imidazol-4-yl]cyclopropanecarboxylic acid], the IC50 is 33 nM.

As for `NCCC[C@H]1C[C@]1(C(=O)O)c1cn(-c2cccc3ccccc23)cn1` (relative stereo) [Example 47, (1R*,2S*)-2-(3-Aminopropyl)-1-[1-(1-naphthyl)-1H-imidazol-4-yl]cyclopropanecarboxylic acid], the half-maximal inhibitory concentration (IC50) came to 54 nM.

In the case of `C[C@H](CCN)C1CC1(C(=O)O)c1cn(-c2ccccn2)cn1` (stereo partly drawn) [Example 68, 2-[(2R)-4-Aminobutane-2-yl]-1-[1-(pyridin-2-yl)-1H-imidazol-4-yl)cyclopropanecarboxylic acid], the IC50 came to 12 nM.

Take `C[C@H](CN)C[C@H]1C[C@]1(C(=O)O)c1cn(-c2ccccc2)cn1` [Example 51, (1R,2S)-2-[(2S)-3-Amino-2-methylpropyl]-1-(1-phenyl-1H-imidazol-4-yl)cyclopropanecarboxylic acid]: the IC50 amounted to 35 nM.

As to `CCOC(=O)[C@]1(c2cn(-c3ccc(C)cc3)cn2)C[C@@H]1CCCN` (relative stereo) [Example 26, Ethyl (1R*,2S*)-2-(3-aminopropyl)-1-[1-(4-methylphenyl)-1H-imidazol-4-yl]cyclopropanecarboxylate hydrochloride], the IC50 was found to be 10000 nM.

Consider `NCCC[C@H]1C[C@]1(C(=O)O)c1cn(-c2ccc(F)c(F)c2)cn1` (relative stereo) [Example 17, (1R*,2S*)-2-(3-Aminopropyl)-1-[1-(3,4-difluorophenyl)-1H-imidazol-4-yl]cyclopropanecarboxylic acid], for which the IC50 was determined as 61 nM.

Regarding `CC[C@@H](CN)C[C@H]1C[C@]1(C(=O)O)c1cn(-c2ccccn2)cn1` [Example 60, (1R,2S)-2-[(2R)-2-(Aminomethyl)butyl]-1-(1-pyridin-2-yl-1H-imidazol-4-yl)cyclopropanecarboxylic acid], the IC50 worked out at 8.3 nM.

As for `NCCC[C@H]1C[C@]1(C(=O)O)c1cn(-c2ncccn2)cn1` (relative stereo) [Example 39, (1R*,2S*)-2-(3-Aminopropyl)-1-(1-pyrimidin-2-yl-1H-imidazol-4-yl)cyclopropanecarboxylic acid], the IC50 came out at 30 nM.

Regarding `NCCC[C@@H]1C[C@@]1(C(=O)O)c1cn(-c2ccccc2)cn1` [Example 29, (1S,2R)-2-(3-Aminopropyl)-1-(1-phenyl-1H-imidazol-4-yl)cyclopropanecarboxylic acid], the half-maximal inhibitory concentration (IC50) was more than 10000 nM.

In the case of `C[C@@H](CN)C[C@@H]1C[C@@]1(C(=O)O)c1cn(-c2ccccn2)cn1` [Example 55, (1S,2R)-2-[(2R)-3-Amino-2-methylpropyl]-1-(1-pyridin-2-yl-1H-imidazol-4-yl]cyclopropanecarboxylic acid], the IC50 is more than 3000 nM.

Consider `NCCC[C@H]1C[C@]1(C(=O)O)c1cn(-c2ccccc2)cn1` [Example 30, (1R,2S)-2-(3-Aminopropyl)-1-(1-phenyl-1H-imidazol-4-yl)cyclopropanecarboxylic acid], for which the IC50 came out at 13 nM.

Take `COc1ccc(-n2cnc([C@@]3(C(=O)O)C[C@@H]3CCCN)c2)nc1` (relative stereo) [Example 44, (1R*,2S*)-2-(3-Aminopropyl)-1-[1-(5-methoxypyridin-2-yl)-1H-imidazol-4-yl]cyclopropanecarboxylic acid]: the IC50 came to 16 nM.

Consider `NCCC[C@H]1C[C@]1(C(=O)O)c1cn(-c2ccc(O)nc2)cn1` (relative stereo) [Example 35, (1R*,2S*)-2-(3-Aminopropyl)-1-[1-(6-hydroxypyridin-3-yl)-1H-imidazol-4-yl]cyclopropanecarboxylic acid], for which the IC50 turned out to be 340 nM.

Take `Cc1ccc(-n2cnc([C@@]3(C(=O)O)C[C@@H]3CCCN)c2)nc1` (relative stereo) [Example 49, (1R*,2S*)-2-(3-Aminopropyl)-1-[1-(5-methylpyridin-2-yl)-1H-imidazol-4-yl]cyclopropanecarboxylic acid]: the IC50 is 18 nM.

Regarding `Cc1cccc(-n2cnc([C@@]3(C(=O)O)C[C@@H]3CCCN)c2)n1` (relative stereo) [Example 65, (1R*,2S*)-2-(3-Aminopropyl)-1-[1-(6-methylpyridin-2-yl)-1H-imidazol-4-yl]cyclopropanecarboxylic acid], the IC50 worked out at 73 nM.

With `Cc1ccc(-n2cnc([C@@]3(C(=O)O)C[C@@H]3C[C@@H](C)CN)c2)nc1` [Example 58, (1R,2S)-2-[(2R)-3-Amino-2-methylpropyl]-1-[1-(5-methylpyridin-2-yl)-1H-imidazol-4-yl]cyclopropanecarboxylic acid], the IC50 was found to be 8.7 nM.

The assay is the same for the next values; noted with them: read-out: TAFIa IC50.
Consider `CCC(CN)CC1C[C@]1(C(=O)O)c1cn(-c2ccccc2)cn1` (stereo partly drawn) [Example 53, (1R,2S)-2-[(2-Aminomethyl)butyl]-1-(1-phenyl-1H-imidazol-4-yl]cyclopropanecarboxylic acid], for which the IC50 was found to be 13 nM.

`CC[C@H](CN)C[C@H]1C[C@]1(C(=O)O)c1cn(-c2ccccc2)cn1` [Example 63, (1R,2S)-2-[(25)-2-(Aminomethyl)butyl]-1-(1-phenyl-1H-imidazol-4-yl)cyclopropanecarboxylic acid]: the IC50 amounted to 12 nM.

Take `CCC[C@@H](CN)C[C@@H]1C[C@@]1(C(=O)O)c1cn(-c2ccccn2)cn1` [Example 67, (1S,2R)-2-[(2R)-2-(Aminomethyl)pentyl]-1-(1-pyridin-2-yl-1H-imidazol-4-yl)cyclopropanecarboxylic acid]: the IC50 was more than 100 nM.
